Results: patent US20120142750A1, “INDOLEAMINE 2,3-DIOXYGENASE PATHWAYS IN THE GENERATION OF REGULATORY T CELLS” (Regents of the University of Minnesota, priority 2005, published 2012)

Experiments:
CHOP in Tregs = assay: Intracellular CHOP expression in Tregs and OT-I cells cultured with TDLN pDCs; format: cell-based, mouse; conditions: 48 hours; with OVA antigen; no bystander cells
Source text: Flow cytometry. Details of the staining protocols are given below. For CHOP and Foxp3 staining, assays were set up without the A1 bystander cells, so that the Tregs were the only CD4^+ cells in the system and thus could be unambiguously followed throughout the assay.
FAGS staining. Antibodies were from BD-Pharmingen unless otherwise noted. Anti-mouse CD25-APC conjugate (clone PC61, cat. #17-0251-81) was from eBioscience: This conjugate gave brighter signal and better separation of CD25^+ cells than other conjugates from other suppliers. For intracellular staining of CHOP, live cells were first blocked for 10 minutes with mouse Fc Block (BD Pharmingen) in 10% fetal calf serum medium, stained with anti-CD4-FITC for 30 minutes on ice, washed with PBS, then fixed and permeablized for 20 minutes in 250 ul Cytoperm/Cytofix solution (BD Pharmingen) on ice. All subsequent staining and wash steps were in BD Permwash solution. Fixed cells were stained with 1:100 dilution of monoclonal anti-gadd153/CHOP (sc-7351, Santa Cruz Biotechnology), washed, and stained with secondary monoclonal rat anti-mouse-IgG1-PE (#550083, BD Biosciences). […] For CHOP staining, assays were set up without A1 bystander cells, so that Tregs were the only CD4^+ cells, and thus could be unambiguously followed throughout the assay. […]

[1] = system: PDCs and allogeneic naive CD4+ T cells; assay: In vitro priming of naive CD4+ T cells by allogeneic PDCs: CD4+CD25+Foxp3+ Treg generation (flow cytometry); format: cell-based, human; conditions: added to CpG ODN-PDC/naive CD4+ T cell priming cultures; day 7; 1MT 250 μM, Abs 0.1-10 μg/ml
Source text: PDC, B, and T cell isolation. Human PBMC were isolated under IRE-approved protocols from apheresis products of healthy blood donors (Memorial Blood Centers of Minnesota, Minneapolis, Minn.) by Ficoll-Paque density gradient centrifugation. Plasmascytoid dendritic cells (PDCs) were isolated from PBMC using BDCA-4 cell isolation kits and the MACS system, followed by staining and sorting to collect purified Lin-CD11c-CD123+ PDCs, as reported previously (Moseman et al., J Immunol 2004; 173:4433-4442). […] cells were isolated from PBMC using CD4 T cell isolation kits followed by positive selection with CD45RA microbeads. […] B cells were isolated from PBMC with CD19 microbeads and the MACS system to greater than 98% purity of CD19+ B cells. All cell isolations kits and microbeads were from Miltenyi Biotec (Bergisch Gladbach, Germany). Reagents. Phosphorothioate-modified type-A CpG ODN 2216: […] NO:2), type-B CpG ODN 2006: […] NO:3) (sequences are shown 5'-3'; small letters represent phosphorothioate linkage; capital letters represent phosphodiester linkage 3' of the base; bold represents CpGdinucleotides) were from Integrated DNA Technologies (Coralville, Iowa), diluted in PBS, and used at a final concentration of 1 microgran per milliliter (μg/ml). […] Kynurenine (L-KYN, Sigma-Aldrich) was used at a final concentration of 50 μM. In vitro priming of naive CD4+ T cells. CD4+CD45RA+ naive T cells were primed with allogeneic PDCs or irradiated B cells (30 Gy) at a 10:1 ratio (e.g., 2×10^6 naive CD4+ T cells plus 2×105 PDCs per well in 24-well plates) with ODN 2216 or ODN 2006 present in RPMI 1640 medium supplemented with 10% human AB serum. 1 MT and/or KYN were added into CpG ODN-PDC or CpG ODN-B cell mediated naive CD4+ T cell priming cultures as indicated. […] After 7 days, primed T cells in cultures were harvested, assessed for their surface phenotype, intracellular Foxp3 expression, and their function in MLR assays. […] Mean fluorescence intensity (MFI) and positive cell percentages of stained cells were determined by flow cytometry.

PDCs = assay: Surface expression of CD80, CD86, HLA-DR on PDCs (flow cytometry); format: cell-based, human; conditions: 1MT added to priming MLRs with CpG ODN
Source text: PDC, B, and T cell isolation. Human PBMC were isolated under IRE-approved protocols from apheresis products of healthy blood donors (Memorial Blood Centers of Minnesota, Minneapolis, Minn.) by Ficoll-Paque density gradient centrifugation. Plasmascytoid dendritic cells (PDCs) were isolated from PBMC using BDCA-4 cell isolation kits and the MACS system, followed by staining and sorting to collect purified Lin-CD11c-CD123+ PDCs, as reported previously (Moseman et al., J Immunol 2004; 173:4433-4442). CD4+CD45RA+ naïve T cells were isolated from PBMC using CD4 T cell isolation kits followed by positive selection with CD45RA microbeads. The purity of naïve CD4+ T cells was greater than 95% for CD4+CD45RA+ expression and less than 0.5% for CD25+ expression. B cells were isolated from PBMC with CD19 microbeads and the MACS system to greater than 98% purity of CD19+ B cells. All cell isolations kits and microbeads were from Miltenyi Biotec (Bergisch Gladbach, Germany).
Flow Cytometry. Fluorescent antibodies (Abs) against human CD3, CD4, CD11c, CD19, CD25, CD40, CD45, CD45RA, CD45RO, CD80, CD86, CD123, HLA-DR, lineage (Lin) markers, and isotype control Abs were from BD Biosciences (San Diego, Calif.). […] Mean fluorescence intensity (MFI) and positive cell percentages of stained cells were determined by flow cytometry.

Cn1cc(C[C@@H](N)C(=O)O)c2ccccc21 [Inhibitor 1MT, 1-methyl-D-tryptophan]
CHOP induction in Tregs (and OT-I) (CHOP in Tregs): abrogated
PDC-induced CD4+CD25+Foxp3+ Treg generation, effect of added agent [1]: significantly reduced
expression of cell surface maturation markers by PDCs (CD80, CD86, HLA-DR) (PDCs): insignificant effects
